The target of assay [1] is Epidermal growth factor receptor (Homo sapiens, UniProt P00533). The experiment in a line: Inhibition of EGFR phosphorylation at Y 1173 residues in human HeLa cells preincubated for 30 mins followed by EGF-stimulation and measured after 2 mins by ELISA. Format: cell-based. A general note: ELISA stands for enzyme-linked immunosorbent assay.
The target in assay [2] is T1, SOS1-KRAS (Homo sapiens, UniProt P01116+Q07889, G12C). The assay is described as follows: Inhibition of human N-terminal GST-tagged K-RasG12C mutant/human N-terminal His-tagged SOS1 preincubated for 2 mis followed by SOS1 addition and measured after 20 mins in presence of GDP-Dy647P1 by HTRF assay. (In general: In TR-FRET formats the signal depends on donor and acceptor labels being close together.)
T1 sequence (P01116 whole entry G12C, stated change not applied): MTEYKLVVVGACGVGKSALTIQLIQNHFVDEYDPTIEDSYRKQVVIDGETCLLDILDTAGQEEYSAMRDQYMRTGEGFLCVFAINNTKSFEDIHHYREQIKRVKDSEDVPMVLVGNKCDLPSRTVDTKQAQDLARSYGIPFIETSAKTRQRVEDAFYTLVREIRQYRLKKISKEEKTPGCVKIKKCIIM
T1 sequence (Q07889 whole entry, stated change not applied): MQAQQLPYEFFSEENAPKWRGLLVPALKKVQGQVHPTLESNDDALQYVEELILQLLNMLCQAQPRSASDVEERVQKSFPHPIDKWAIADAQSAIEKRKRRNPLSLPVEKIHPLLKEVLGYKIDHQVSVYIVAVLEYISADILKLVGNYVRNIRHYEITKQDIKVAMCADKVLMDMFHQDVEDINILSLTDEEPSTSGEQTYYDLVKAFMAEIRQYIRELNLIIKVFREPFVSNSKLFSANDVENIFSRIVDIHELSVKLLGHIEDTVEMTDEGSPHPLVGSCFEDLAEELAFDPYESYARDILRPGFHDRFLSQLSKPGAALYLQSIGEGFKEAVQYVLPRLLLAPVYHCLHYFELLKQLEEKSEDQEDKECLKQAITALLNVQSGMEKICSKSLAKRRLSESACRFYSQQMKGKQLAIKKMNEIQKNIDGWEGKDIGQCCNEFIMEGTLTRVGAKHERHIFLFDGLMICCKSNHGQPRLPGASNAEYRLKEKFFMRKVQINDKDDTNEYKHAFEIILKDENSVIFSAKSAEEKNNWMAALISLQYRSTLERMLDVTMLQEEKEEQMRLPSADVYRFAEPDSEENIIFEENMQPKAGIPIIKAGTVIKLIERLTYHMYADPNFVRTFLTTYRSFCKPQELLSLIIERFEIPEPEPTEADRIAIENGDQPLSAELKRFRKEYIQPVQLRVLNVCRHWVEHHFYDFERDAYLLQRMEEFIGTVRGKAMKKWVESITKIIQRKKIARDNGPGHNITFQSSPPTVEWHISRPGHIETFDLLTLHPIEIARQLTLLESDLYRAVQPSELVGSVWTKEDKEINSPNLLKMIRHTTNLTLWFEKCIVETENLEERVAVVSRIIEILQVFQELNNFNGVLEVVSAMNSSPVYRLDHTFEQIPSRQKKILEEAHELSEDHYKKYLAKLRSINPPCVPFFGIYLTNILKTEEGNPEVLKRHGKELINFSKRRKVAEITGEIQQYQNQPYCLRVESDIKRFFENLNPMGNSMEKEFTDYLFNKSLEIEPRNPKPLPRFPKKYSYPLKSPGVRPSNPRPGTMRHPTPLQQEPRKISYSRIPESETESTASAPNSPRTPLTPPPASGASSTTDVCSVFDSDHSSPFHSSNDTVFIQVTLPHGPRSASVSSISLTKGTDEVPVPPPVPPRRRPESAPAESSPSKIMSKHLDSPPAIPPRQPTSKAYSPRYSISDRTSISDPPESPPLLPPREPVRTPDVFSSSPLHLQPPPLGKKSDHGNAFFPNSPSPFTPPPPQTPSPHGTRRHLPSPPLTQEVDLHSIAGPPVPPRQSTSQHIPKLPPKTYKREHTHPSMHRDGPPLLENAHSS

Assay [3] deals with T1, SOS1-KRAS. The experiment in a line: Inhibition of human N-terminal GST-tagged K-RasG12C mutant/human N-terminal His-tagged SOS1 preincubated for 2 mis followed by SOS1 addition and measured after 60 mins by HTRF assay.
The target in assay [4] is T1, SOS1-KRAS. The assay is described as follows: Inhibition of human N-terminal GST-tagged K-RasG12C mutant/human N-terminal His-tagged SOS1 preincubated for 2 mis followed by SOS1 addition and measured after 10 mins in presence of EDA-GTP-Dy647P1 by HTRF assay.

Epidermal growth factor receptor, sequence (P00533 whole entry): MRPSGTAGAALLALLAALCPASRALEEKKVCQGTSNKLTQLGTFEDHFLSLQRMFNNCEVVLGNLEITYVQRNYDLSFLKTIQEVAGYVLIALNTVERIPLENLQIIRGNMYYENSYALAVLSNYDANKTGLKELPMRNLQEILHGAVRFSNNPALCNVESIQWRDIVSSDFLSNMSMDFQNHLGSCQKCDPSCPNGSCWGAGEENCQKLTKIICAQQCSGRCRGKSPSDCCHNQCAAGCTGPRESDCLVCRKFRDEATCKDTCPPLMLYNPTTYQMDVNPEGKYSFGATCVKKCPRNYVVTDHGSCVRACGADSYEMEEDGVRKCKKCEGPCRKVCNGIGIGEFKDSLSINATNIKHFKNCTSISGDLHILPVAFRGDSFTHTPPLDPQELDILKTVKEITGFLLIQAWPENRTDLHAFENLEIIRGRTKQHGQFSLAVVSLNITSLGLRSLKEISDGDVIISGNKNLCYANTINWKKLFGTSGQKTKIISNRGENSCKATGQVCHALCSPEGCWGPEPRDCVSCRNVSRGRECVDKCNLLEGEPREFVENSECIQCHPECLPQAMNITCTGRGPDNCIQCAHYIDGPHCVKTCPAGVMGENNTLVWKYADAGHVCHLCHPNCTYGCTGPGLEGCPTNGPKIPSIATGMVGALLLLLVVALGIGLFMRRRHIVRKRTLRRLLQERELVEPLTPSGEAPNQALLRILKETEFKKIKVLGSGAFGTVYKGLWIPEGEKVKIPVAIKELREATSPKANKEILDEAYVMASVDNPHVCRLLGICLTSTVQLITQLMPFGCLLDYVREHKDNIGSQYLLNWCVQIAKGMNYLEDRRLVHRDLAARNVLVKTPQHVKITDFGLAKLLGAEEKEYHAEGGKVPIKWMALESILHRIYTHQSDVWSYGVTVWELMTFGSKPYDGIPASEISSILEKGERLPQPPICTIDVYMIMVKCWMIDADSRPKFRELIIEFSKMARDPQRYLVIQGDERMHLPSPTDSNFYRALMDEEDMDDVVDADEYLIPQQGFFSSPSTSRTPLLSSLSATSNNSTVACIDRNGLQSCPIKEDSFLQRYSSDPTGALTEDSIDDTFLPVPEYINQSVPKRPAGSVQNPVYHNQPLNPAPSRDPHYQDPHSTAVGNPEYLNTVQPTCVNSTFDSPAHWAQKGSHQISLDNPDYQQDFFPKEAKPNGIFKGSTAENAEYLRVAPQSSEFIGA

By IC50 is commonly meant the concentration that inhibits the measured activity by half. Turning to `CSc1cc2c(N[C@H](C)c3ccc(F)cc3)nc(C)nc2cn1`, the IC50 in assay [1] is > 20 µM. On to `CNCc1ccccc1-c1ccc(C(C)Nc2nc(C)nc3cnc(OCC4CCNC(=O)C4)cc23)s1` (centres undefined), for which the IC50 in assay [1] was > 20 µM. Turning to `Cc1nc(NC(C)c2ccc(-c3ccccc3CN(C)C)s2)c2cc(OCCN(C)C)ncc2n1` (centres undefined), the IC50 in assay [1] was > 20 µM; at SOS1-KRAS [2] it was 0.027 µM; at SOS1-KRAS [3] it was 0.03 µM.

Consider `COCCOc1cc2c(N[C@H](C)c3ccc(F)cc3)nc(C)nc2cn1`, for which the IC50 in assay [1] was > 20 µM. Regarding `CCOc1cc2c(N[C@H](C)c3ccc(F)cc3)nc(C)nc2cn1`, in assay [1], the IC50 is > 20 µM.

`Cc1nc(NC(C)c2ccc(-c3ccccc3CN(C)C)s2)c2cc(N3CCN(Cc4cccnc4)CC3)ncc2n1` (centres undefined): the 50% inhibitory concentration (IC50) was > 20 µM in assay [1] and 0.085 µM at SOS1-KRAS [2].

On to `CCCOc1cc2c(NC(C)c3ccc(-c4ccccc4CN(C)C)s3)nc(C)nc2cn1` (centres undefined), for which the values for the half-inhibitory concentration (IC50) (in assay [1]; at SOS1-KRAS [2]) were > 20 µM and 0.038 µM, respectively. Turning to `COc1cc2c(N[C@H](C)c3ccc(F)cc3)nc(C)nc2cn1`, the IC50 in assay [1] is > 20 µM.

For `Cc1nc(NC(C)c2ccc(-c3ccccc3CN(C)C)s2)c2cc(N3CC(NC(=O)CN4CCOCC4)C3)ncc2n1` (centres undefined), in assay [1], the IC50 is > 20 µM. Turning to `CCOc1cc2c(N[C@H](C)c3ccccc3)nc(C)nc2cn1`, the half-inhibitory concentration (IC50) in assay [1] is > 20 µM. As to `Cc1nc(NC(C)c2ccc(-c3ccccc3CN(C)C)s2)c2cc(N3CCNC(=O)C3)ncc2n1` (centres undefined), the IC50 in assay [1] was > 20 µM; at SOS1-KRAS [2], 0.048 µM; at SOS1-KRAS [4], 0.054 µM. For `CC(=O)NC1CCN(c2cc3c(NC(C)c4ccc(-c5ccccc5CN(C)C)s4)nc(C)nc3cn2)C1` (racemic), in assay [1], the IC50 is > 20 µM. Consider `CC(=O)N[C@@H]1CCN(c2cc3c(NC(C)c4ccc(-c5ccccc5CN(C)C)s4)nc(C)nc3cn2)C1` (stereo in doubt; 60), for which, in assay [1], the concentration for half-maximal inhibition (IC50) was > 20 µM. Same read-out and setting: next, `CC(=O)N[C@H]1CCN(c2cc3c(NC(C)c4ccc(-c5ccccc5CN(C)C)s4)nc(C)nc3cn2)C1` (stereo in doubt; 61): > 20 µM. Turning to `CC(=O)N[C@@H]1CCN(c2cc3c(NC(C)c4ccc(-c5ccccc5CN(C)C)s4)nc(C)nc3cn2)C1` (stereo in doubt; 79), in assay [1] (hela), the IC50 was > 20 µM. For `CC(=O)N[C@@H]1CCN(c2cc3c(NC(C)c4ccc(-c5ccccc5CN(C)C)s4)nc(C)nc3cn2)C1` (stereo in doubt; 80), in assay [1] (hela), the IC50 is > 20 µM.

As for `CC(=O)N[C@H]1CCN(c2cc3c(NC(C)c4ccc(-c5ccccc5CN(C)C)s4)nc(C)nc3cn2)C1` (stereo in doubt; 81), the IC50 in assay [1] (hela) is > 20 µM. On the same count and under the same terms, next, `CC(=O)N[C@H]1CCN(c2cc3c(NC(C)c4ccc(-c5ccccc5CN(C)C)s4)nc(C)nc3cn2)C1` (stereo in doubt; 82): > 20 µM.
